Data as given in ChEMBL document CHEMBL3525904, “Effect of structural variation on aldehyde oxidase-catalyzed oxidation of zoniporide” (Drug Metab Dispos, 2012).

How the values were obtained:
Assay type in all cases: ADME, subcellular
Aldehyde oxidase [1] = target: T1, Aldehyde oxidase (Homo sapiens, UniProt Q06278); assay: Drug level in human liver S9 fraction assessed as aldehyde oxidase-mediated compound formation treated with 10 uM 5-cyclopropyl-1-(quinolin-5-yl)-1H-pyrazole-4-carboxylic acid by spectrometry
T1 sequence (Q06278 whole entry): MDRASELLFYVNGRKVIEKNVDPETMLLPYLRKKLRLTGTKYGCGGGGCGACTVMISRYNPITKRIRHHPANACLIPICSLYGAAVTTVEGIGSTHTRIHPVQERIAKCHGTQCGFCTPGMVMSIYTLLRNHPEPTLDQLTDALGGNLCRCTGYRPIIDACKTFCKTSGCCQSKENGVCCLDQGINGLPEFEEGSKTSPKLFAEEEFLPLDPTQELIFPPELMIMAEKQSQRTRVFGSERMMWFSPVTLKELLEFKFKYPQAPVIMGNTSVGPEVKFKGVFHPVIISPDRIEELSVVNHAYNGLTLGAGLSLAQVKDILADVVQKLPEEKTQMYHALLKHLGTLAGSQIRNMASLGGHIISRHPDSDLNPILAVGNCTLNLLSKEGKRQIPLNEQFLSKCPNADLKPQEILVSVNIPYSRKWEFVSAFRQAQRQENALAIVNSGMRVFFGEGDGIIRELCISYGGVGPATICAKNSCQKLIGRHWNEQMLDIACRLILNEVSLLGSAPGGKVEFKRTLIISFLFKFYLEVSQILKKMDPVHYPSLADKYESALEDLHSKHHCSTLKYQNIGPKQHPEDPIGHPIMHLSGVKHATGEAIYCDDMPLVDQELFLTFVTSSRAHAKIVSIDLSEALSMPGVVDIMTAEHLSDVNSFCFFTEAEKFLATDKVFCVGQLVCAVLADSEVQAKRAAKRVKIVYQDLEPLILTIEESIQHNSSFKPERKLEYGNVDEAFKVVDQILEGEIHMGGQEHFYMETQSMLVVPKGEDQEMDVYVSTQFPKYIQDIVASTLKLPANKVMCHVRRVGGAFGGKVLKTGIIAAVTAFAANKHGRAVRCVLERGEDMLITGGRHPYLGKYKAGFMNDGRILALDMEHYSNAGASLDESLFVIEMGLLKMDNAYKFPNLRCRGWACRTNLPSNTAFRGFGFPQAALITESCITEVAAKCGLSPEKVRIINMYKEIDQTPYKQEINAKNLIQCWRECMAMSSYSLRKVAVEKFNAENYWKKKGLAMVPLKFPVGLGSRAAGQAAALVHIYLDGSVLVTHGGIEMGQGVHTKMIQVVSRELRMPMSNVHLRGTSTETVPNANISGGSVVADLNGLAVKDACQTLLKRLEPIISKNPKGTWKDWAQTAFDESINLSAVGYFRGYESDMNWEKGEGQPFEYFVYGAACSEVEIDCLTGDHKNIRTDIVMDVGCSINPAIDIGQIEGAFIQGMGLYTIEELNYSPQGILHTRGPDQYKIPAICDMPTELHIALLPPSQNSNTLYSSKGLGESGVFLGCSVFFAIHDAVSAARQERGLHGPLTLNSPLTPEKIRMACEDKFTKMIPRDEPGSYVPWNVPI

Aldehyde oxidase [2] = target: T1, Aldehyde oxidase; assay: Half life in human liver S9 fraction assessed as aldehyde oxidase-mediated 2-oxo-metabolite formation at 1 uM by spectrometry; conditions: s9, 1 µM
Aldehyde oxidase [3] = target: T1, Aldehyde oxidase; assay: Drug metabolism in human liver S9 fraction assessed as aldehyde oxidase-mediated 2-oxo-metabolite formation at 10 uM by spectrometry; conditions: s9, 10 µM
Aldehyde oxidase [4] = target: T1, Aldehyde oxidase; assay: Drug level in human liver S9 fraction assessed as aldehyde oxidase-mediated compound formation treated with 10 uM 5-butyl-N-carbamimidoyl-1-(quinolin-5-yl)-1H-pyrazole-4-carboxamide by spectrometry
Aldehyde oxidase [5] = target: T1, Aldehyde oxidase; assay: Drug level in human liver S9 fraction assessed as aldehyde oxidase-mediated compound formation treated with 10 uM N-carbamimidoyl-5-propyl-1-(quinolin-5-yl)-1H-pyrazole-4-carboxamide by spectrometry
Aldehyde oxidase [6] = target: T1, Aldehyde oxidase; assay: Drug level in human liver S9 fraction assessed as aldehyde oxidase-mediated compound formation treated with 10 uM N-carbamimidoyl-5-isopropyl-1-(quinolin-5-yl)-1H-pyrazole-4-carboxamide by spectrometry
Aldehyde oxidase [7] = target: T1, Aldehyde oxidase; assay: Drug level in human liver S9 fraction assessed as aldehyde oxidase-mediated compound formation treated with 10 uM 5-cyclopropyl-N,N-diethyl-1-(quinolin-5-yl)-1H-pyrazole-4-carboxamide by spectrometry
Aldehyde oxidase [8] = target: T1, Aldehyde oxidase; assay: Drug level in human liver S9 fraction assessed as aldehyde oxidase-mediated compound formation treated with 10 uM 5-cyclopropyl-1-(quinolin-5-yl)-1H-pyrazole-4-carboxamide by spectrometry
Aldehyde oxidase [9] = target: T1, Aldehyde oxidase; assay: Drug level in human liver S9 fraction assessed as aldehyde oxidase-mediated compound formation treated with 10 uM N-carbamimidoyl-3-cyclopropyl-1-(quinolin-5-yl)-1H-pyrazole-4-carboxamideby spectrometry
Aldehyde oxidase [10] = target: T1, Aldehyde oxidase; assay: Drug level in human liver S9 fraction assessed as aldehyde oxidase-mediated compound formation treated with 10 uM N-carbamimidoyl-5-cyclopropyl-1-(6-methoxyquinolin-5-yl)-1H-pyrazole-4-carboxamide by spectrometry
Aldehyde oxidase [11] = target: T1, Aldehyde oxidase; assay: Drug level in human liver S9 fraction assessed as aldehyde oxidase-mediated compound formation treated with 10 uM N-carbamimidoyl-5-methyl-1-(quinolin-5-yl)-1H-pyrazole-4-carboxamide by spectrometry
Aldehyde oxidase [12] = target: T1, Aldehyde oxidase; assay: Drug level in human liver S9 fraction assessed as aldehyde oxidase-mediated compound formation treated with 10 uM zoniporide by spectrometry
Aldehyde oxidase [13] = target: T1, Aldehyde oxidase; assay: Drug level in human liver S9 fraction assessed as aldehyde oxidase-mediated compound formation treated with 10 uM N-carbamimidoyl-5-cyclopropyl-1-(6-hydroxyquinolin-5-yl)-1H-pyrazole-4-carboxamide by spectrometry
Aldehyde oxidase [14] = target: T1, Aldehyde oxidase; assay: Drug level in human liver S9 fraction assessed as aldehyde oxidase-mediated compound formation treated with 10 uM N-carbamimidoyl-5-cyclopropyl-1-(6-methylquinolin-5-yl)-1H-pyrazole-4-carboxamide by spectrometry
Aldehyde oxidase [15] = target: T1, Aldehyde oxidase; assay: Drug level in human liver S9 fraction assessed as aldehyde oxidase-mediated compound formation treated with 10 uM N-carbamimidoyl-5-(methoxymethyl)-1-(quinolin-5-yl)-1H-pyrazole-4-carboxamide by spectrometry
[16] = substrate: N=C(N)NC(=O)c1cnn(-c2ccnc3ccccc23)c1C1CC1; assay: (§1) Drug metabolism in human liver S9 fraction assessed as aldehyde oxidase-mediated 2-oxo-metabolite formation by spectrometry
[17] = substrate: COCc1c(C(=O)NC(=N)N)cnn1-c1cccc2ncccc12; assay: as §1
[18] = substrate: N=C(N)NC(=O)c1cn(-c2cccc3ncccc23)nc1C1CC1; assay: as §1
[19] = substrate: N=C(N)NC(=O)c1cnn(-c2ccc3ncccc3c2)c1C1CC1; assay: as §1
[20] = substrate: CC(C)c1c(C(=O)NC(=N)N)cnn1-c1cccc2ncccc12; assay: as §1
[21] = substrate: CCN(CC)C(=O)c1cnn(-c2cccc3ncccc23)c1C1CC1; assay: as §1

Q: Which Drug metabolism (Aldehyde oxidase [1]) does the source give for `O=C(O)c1cnn(-c2cccc3[nH]c(=O)ccc23)c1C1CC1` here?
A: Its Drug metabolism is “metabolite_detected”.

Q: With `N=C(N)NC(=O)c1cnn(-c2ccnc3ccccc23)c1C1CC1` as the molecule, how does the t1/2 (Aldehyde oxidase [2]) read?
A: Its t1/2 is 14 min.

Q: And the Drug metabolism (Aldehyde oxidase [3])?
A: The Drug metabolism was “metabolite_detected”.

Q: Which results are given for `CC(C)c1c(C(=O)NC(=N)N)cnn1-c1cccc2ncccc12`?
A: t1/2 (Aldehyde oxidase [2]): 15 min; Drug metabolism (Aldehyde oxidase [3]): metabolite_detected

Q: With `N=C(N)NC(=O)c1cnn(-c2cccc3[nH]cnc23)c1C1CC1` as the molecule, how does the t1/2 (Aldehyde oxidase [2]) read?
A: The t1/2 was 120 min.

Q: What about the Drug metabolism (Aldehyde oxidase [3]) of the same molecule?
A: The Drug metabolism was “metabolite_detected”.

Q: Which results are given for `CCCCc1c(C(=O)NC(=N)N)cnn1-c1cccc2ncccc12`?
A: t1/2 (Aldehyde oxidase [2]): 48 min; Drug metabolism (Aldehyde oxidase [3]): metabolite_detected

Q: With `Cc1ccc2ncccc2c1-n1ncc(C(=O)NC(=N)N)c1C1CC1` as the molecule, how does the t1/2 (Aldehyde oxidase [2]) read?
A: The t1/2 was 120 min.

Q: And the Drug metabolism (Aldehyde oxidase [3])?
A: The Drug metabolism was “metabolite_detected”.

Q: With `CCCCc1c(C(=O)NC(=N)N)cnn1-c1cccc2[nH]c(=O)ccc12` as the molecule, how does the Drug metabolism (Aldehyde oxidase [4]) read?
A: The Drug metabolism was “metabolite_detected”.

Q: For `NC(=O)c1cnn(-c2cccc3ncccc23)c1C1CC1`, which t1/2 (Aldehyde oxidase [2]) is on record?
A: Its t1/2 is 110 min.

Q: What about the Drug metabolism (Aldehyde oxidase [3]) of the same molecule?
A: The Drug metabolism was “metabolite_detected”.

Q: `Cc1c(C(=O)N=C(N)N)cnn1-c1cccc2ncccc12` was tested. Which t1/2 (Aldehyde oxidase [2]) did it give?
A: The t1/2 was 33 min.

Q: What about the Drug metabolism (Aldehyde oxidase [3]) of the same molecule?
A: Its Drug metabolism is “metabolite_detected”.

Q: With `COCc1c(C(=O)NC(=N)N)cnn1-c1cccc2ncccc12` as the molecule, how does the t1/2 (Aldehyde oxidase [2]) read?
A: The t1/2 was 120 min.

Q: What about the Drug metabolism (Aldehyde oxidase [3]) of the same molecule?
A: Its Drug metabolism is “metabolite_detected”.

Q: How did the t1/2 (Aldehyde oxidase [2]) turn out when `N=C(N)NC(=O)c1cn(-c2cccc3ncccc23)nc1C1CC1` was run?
A: The t1/2 was 3.1 min.

Q: What about the Drug metabolism (Aldehyde oxidase [3]) of the same molecule?
A: The Drug metabolism was “metabolite_detected”.

Q: Which Drug metabolism (Aldehyde oxidase [5]) does the source give for `CCCc1c(C(=O)NC(=N)N)cnn1-c1cccc2[nH]c(=O)ccc12` here?
A: Its Drug metabolism is “metabolite_detected”.

Q: For `CC(C)c1c(C(=O)NC(=N)N)cnn1-c1cccc2[nH]c(=O)ccc12`, which Drug metabolism (Aldehyde oxidase [6]) is on record?
A: The Drug metabolism was “metabolite_detected”.

Q: What does the source list for `N=C(N)NC(=O)c1cnn(-c2c(O)ccc3ncccc23)c1C1CC1`?
A: t1/2 (Aldehyde oxidase [2]): 120 min; Drug metabolism (Aldehyde oxidase [3]): metabolite_detected

Q: With `CCN(CC)C(=O)c1cnn(-c2cccc3[nH]c(=O)ccc23)c1C1CC1` as the molecule, how does the Drug metabolism (Aldehyde oxidase [7]) read?
A: Its Drug metabolism is “metabolite_detected”.

Q: How did the Drug metabolism (Aldehyde oxidase [3]) turn out when `N=C(N)NC(=O)c1cnn(-c2cccc3[nH]ncc23)c1C1CC1` was run?
A: The Drug metabolism was “metabolite_not_detected”.

Q: Which t1/2 (Aldehyde oxidase [2]) does the source give for `CCN(CC)C(=O)c1cnn(-c2cccc3ncccc23)c1C1CC1` here?
A: Its t1/2 is 37 min.

Q: And the Drug metabolism (Aldehyde oxidase [3])?
A: Its Drug metabolism is “metabolite_detected”.

Q: For `NC(=O)c1cnn(-c2cccc3[nH]c(=O)ccc23)c1C1CC1`, which Drug metabolism (Aldehyde oxidase [8]) is on record?
A: Its Drug metabolism is “metabolite_detected”.

Q: Which t1/2 (Aldehyde oxidase [2]) does the source give for `N=C(N)NC(=O)c1cnn(-c2ccc3ncccc3c2)c1C1CC1` here?
A: Its t1/2 is less than 5 min.

Q: What about the Drug metabolism (Aldehyde oxidase [3]) of the same molecule?
A: Its Drug metabolism is “metabolite_detected”.

Q: With `CCCc1c(C(=O)NC(=N)N)cnn1-c1cccc2ncccc12` as the molecule, how does the t1/2 (Aldehyde oxidase [2]) read?
A: The t1/2 was 41 min.

Q: What about the Drug metabolism (Aldehyde oxidase [3]) of the same molecule?
A: The Drug metabolism was “metabolite_detected”.

Q: How did the Drug metabolism (Aldehyde oxidase [3]) turn out when `N=C(N)NC(=O)c1cnn(-c2cccc3[nH]ccc23)c1C1CC1` was run?
A: Its Drug metabolism is “metabolite_not_detected”.

Q: How did the Drug metabolism (Aldehyde oxidase [9]) turn out when `N=C(N)NC(=O)c1cn(-c2cccc3[nH]c(=O)ccc23)nc1C1CC1` was run?
A: The Drug metabolism was “metabolite_detected”.

Q: For `COc1ccc2[nH]c(=O)ccc2c1-n1ncc(C(=O)NC(=N)N)c1C1CC1`, which Drug metabolism (Aldehyde oxidase [10]) is on record?
A: The Drug metabolism was “metabolite_detected”.

Q: With `Cc1c(C(=O)NC(=N)N)cnn1-c1cccc2[nH]c(=O)ccc12` as the molecule, how does the Drug metabolism (Aldehyde oxidase [11]) read?
A: Its Drug metabolism is “metabolite_detected”.

Q: For `N=C(N)NC(=O)c1cnn(-c2cccc3[nH]c(=O)ccc23)c1C1CC1`, which Drug metabolism (Aldehyde oxidase [12]) is on record?
A: Its Drug metabolism is “metabolite_detected”.

Q: With `N=C(N)NC(=O)c1cnn(-c2c(O)ccc3[nH]c(=O)ccc23)c1C1CC1` as the molecule, how does the Drug metabolism (Aldehyde oxidase [13]) read?
A: Its Drug metabolism is “metabolite_detected”.

Q: For `COc1ccc2ncccc2c1-n1ncc(C(=O)NC(=N)N)c1C1CC1`, which t1/2 (Aldehyde oxidase [2]) is on record?
A: Its t1/2 is 120 min.

Q: And the Drug metabolism (Aldehyde oxidase [3])?
A: Its Drug metabolism is “metabolite_detected”.

Q: `O=C(O)c1cnn(-c2cccc3ncccc23)c1C1CC1` was tested. Which t1/2 (Aldehyde oxidase [2]) did it give?
A: Its t1/2 is 120 min.

Q: And the Drug metabolism (Aldehyde oxidase [3])?
A: The Drug metabolism was “metabolite_detected”.

Q: What does the source list for `N=C(N)NC(=O)c1cnn(-c2cccc3ncccc23)c1C1CC1` [ZONIPORIDE]?
A: t1/2 (Aldehyde oxidase [2]): 26 min; Drug metabolism (Aldehyde oxidase [3]): metabolite_detected

Q: With `Cc1ccc2[nH]c(=O)ccc2c1-n1ncc(C(=O)NC(=N)N)c1C1CC1` as the molecule, how does the Drug metabolism (Aldehyde oxidase [14]) read?
A: Its Drug metabolism is “metabolite_detected”.

Q: Which Drug metabolism (Aldehyde oxidase [15]) does the source give for `COCc1c(C(=O)NC(=N)N)cnn1-c1cccc2[nH]c(=O)ccc12` here?
A: Its Drug metabolism is “metabolite_detected”.

B1: Aldehyde oxidase (Homo sapiens) (protein)
chain: T1 sequence (Q06278 whole entry)
Q: Which results are given for B1?
A: Km [16]: 1.8 µM; Km [17]: 9 µM; Km [18]: 0.4 µM; Km [19]: 1.2 µM; Km [20]: 2.2 µM; Km [21]: 16 µM
